Test results published in patent US12377175B2, “Trifunctional constructs with tunable pharmacokinetics useful in imaging and anti-tumor therapies” (Cornell University, priority 2016, dated 2025).

System: LNCaP xenograft tumor-bearing mice
Assay: Biodistribution of 225Ac-macropa-RPS-070 in LNCaP xenograft mice
Format: in vivo, mouse
Settings: 4-96 h; no accumulation of 225Ac in liver, spleen, bone
Experimental: Cell Culture. […] Cell culture supplies were from Invitrogen unless otherwise noted.
Inoculation of Mice with Xenografts. All animal studies were approved by the Institutional Animal Care and Use Committee of Weill Cornell Medicine and were undertaken in accordance with the guidelines set forth by the USPHS Policy on Humane Care and Use of Laboratory Animals. Animals were housed under standard conditions in approved facilities with 12 h light/dark cycles. Food and water was provided ad libitum throughout the course of the studies. Hairless male nu/nu mice were purchased from the Jackson Laboratory. For inoculation in mice, LNCaP cells were suspended at 4×10^7 cells/mL in a 1:1 mixture of PBS:Matrigel (BD Biosciences). Each mouse was injected in the left flank with 0.25 mL of the cell suspension. Biodistributions were conducted when tumors were in the range 100-400 mm^3.
Biodistribution of […] in LNCaP xenograft mice. Fifteen LNCaP xenograft tumor-bearing mice (5 per time point) were injected intravenously with a bolus injection of 85-95 kBq and 100 ng ([…]) of each ligand. The mice were sacrificed by cervical dislocation at 4, 24 and 96 h post injection. A blood sample was removed, and a full biodistribution study was conducted on the following organs (with contents): heart, lungs, liver, small intestine, large intestine, stomach, spleen, pancreas, kidneys, muscle, bone, and tumor. Tissues were weighed and counted on a 2470 Wizard Automatic Gamma Counter (Perkin Elmer). 1% ID/mL samples were counted prior to and following each set of tissue samples to enable decay correction to be undertaken. Counts were corrected for decay and for activity injected, and tissue uptake was expressed as percent injected dose per gram (% ID/g). Standard error measurement was calculated for each data point.

## O=C(O)CC[C@H](NC(=O)N[C@@H](CCCCNC(=O)Nc1cccc(-c2cn(CCOCCOCCOCCOCCOCCOCCC(=O)N[C@@H](CCCCNC(=S)Nc3cc(CN4CCOCCOCCN(Cc5cccc(C(=O)O)n5)CCOCCOCC4)nc(C(=O)O)c3)C(=O)N[C@@H](CCCCNC(=O)Cc3ccc(I)cc3)C(=O)O)nn2)c1)C(=O)O)C(=O)O [macropa-RPS-070, (((S)-1-Carboxy-5-(3-(3-(1-((23S,26S)-26-carboxy-23-(4-(3-(2-carboxy-6-((16-((6-carboxypyridin-2-yl)methyl)-1,4,10,13-tetraoxa-7,16-diazacyclooctadecan-7-yl)methyl)pyridin-4-yl)thioureido)butyl)-33-(4-iodophenyl)-21,24,32-trioxo-3,6,9,12,15,18-hexaoxa-22,25,31-triazatritriacontyl)-1H-1,2,3-triazol-4-yl)phenyl)ureido)pentyl)carbamoyl)-L-glutamic acid]
  retention of 225Ac by the construct in vivo: stably retain
